Measurements as given in patent US20070238717A1, “Neuroprotection with Beta-Lactam Compounds” (Johns Hopkins University, priority 2003, published 2007).

Legend:
[1] = intravenous, antibiotic doses, after 0.5 hours; cited from earlier work
[2] = intravenous, pediatric bacterial meningitis, after 3-4 hours; cited from earlier work
[3] = tested on: primary cortical mixed neuronal-glial cell cultures; assay type: cell-based
Description: In Vitro Model of Ischemia—Oxygen glucose deprivation (FIG. 7A) The in vitro model of oxygen glucose deprivation (OGD) is a well known and well accepted model of acute neural injury. In our in vitro model of ischemia, one hour of oxygen glucose deprivation (OGD) is lethal to cultured neurons, with toxicity known to involve excess glutamate. However, when these cultures are preconditioned 24 hours prior to the lethal condition with transient OGD (5 minutes), there is a dramatic and robust resistance of neurons to cell death.
Method. Primary cortical mixed neuronal-glial cell cultures are prepared from gestation day 14-16 CD1 mice. The preparation of these cultures from mouse fetal cortex is well-described. Experiments are performed at days in vitro 13-15. In the experimental condition, cultures are subjected to oxygen glucose deprivation (OGD), an in-vitro model of ischemia. Cortical cells are either subjected to control treatment (media, modified Earle's balanced salt solution including glucose and bubbled with 5% CO2 95% O2, is changed alongside treatment groups, but no OGD is performed), or 5 minutes (sublethal) of OGD (using modified Earle's balanced salt solution which is devoid of glucose and bubbled with 10% H2, 85% N2, and […]). Anaerobic conditions are achieved using an anaerobic chamber at 37° C. OGD is terminated by exchange of media back to oxygenated growing medium. Twenty-four hours following the above, cortical cells are subjected either to no treatment, or one hour of OGD. Neuronal survival is determined by computer-assisted cell counting after staining with the fluorescent vital dyes propidium iodide (as an indicator of neuronal death) and Hoechst 33342 (as an indicator of total number of neurons) and is presented as percent of cell death. Glial nuclei fluoresce at a lower intensity and are gated out. […] Following 1 hour OGD, cells are returned to growing medium without drugs.

[4] = tested on: EAAT2; experiment: Spinal cord organotypic culture screen for EAAT2 protein expression (slot blot); assay type: cell-based, rat; settings: for EAAT2 expression: positive controls, after 3 days in culture
Source text: Screening Assay for EAAT2 Protein overexpression. Spinal cord organotypic cultures and astroglial cultures are used to screen for drugs capable of stimulating EAAT2 synthesis and function. Organotypic cultures offer the advantage in that they maintain the normal architecture of neuron-astroglial interactions in vitro and are derived from post natal tissue; thus may better reflect astroglial responses in vivo (rather than embryonic cells). Thus a drug that acts either on an astrocyt—or induces neurons to secrete factors that alert astrocytes—better reflects the “natural” condition of delivering a drug to a whole animal.
Organotypic Spinal Cord. Spinal cord organotypic cultures have been described by us in detail in the past. Rothstein J D et al., N. Engl. J. Med. 1992; 326:1464-1468. Briefly, 300 um sections of rat lumbar spinal cord, from postnatal day 8-10 rat pups, are placed on Millipore Millicell CM semipermeable membranes. Each well contains 5 slices (FIG. 2A). Fifty-100 cultures can be prepared weekly. Each drug (10-100 μM) was added for 3-7 days, along with cell culture medium/serum. Cultures were harvested and 5-50 μg of tissue was applied to slot blot apparatus for detection of EAAT2 by standard Western blotting/chemiluminescence methods described in the past. Kuncl R W et al., Motor neuron diseases. In: Asbury A K et al., editors. Diseases of the Nervous System. 2 ed. Philadelphia: W. B. Saunders, 1992:1179-1208; Rothstein J D et al., Neuron 1994; 13:713-725. All antipeptide antibodies were affinity purified and highly specific for transporter subtypes. By this method, increases greater than 50% of expressed protein can be detected. For each antibody slot blot, the homogenates used are expected to be within the linear range for antibody detection, based on prior standard curves.
Screening Library-Assay Design. The library of compounds for these first studies was the NINDS Custom Collection from Microsource Discovery. The library is composed of 1040 compounds in 96 well plates, that also included positive control for transporter synthesis (dibutyryl cyclic AMP [dbcAMP], GDNF). […] The library is a unique collection of known bioactive compounds that permit the simultaneous evaluation of hundreds of marketed drugs and biochemical standards. Each compound was studied at a final concentration of 10-100 μM. All assays were performed in duplicate. Every blot included control—untreated tissue and a positive control, such as those identified above.
Data Analysis. All blots were analyzed by laser densitometry (BioRad Image Quant) and the duplicate points were averaged. Each blot included a positive control standard (e.g. dbcAMP) and a negative control standard (e.g. serum, DMSO). Data was kept in Excel Spreadsheets, using a numerical/text coding system. All positive drugs (positive defined as at least a 50% increased in protein expression) were re-evaluated.

[5] = tested on: cultures prepared from GLT-1 null mice; experiment: Chronic motor neurodegeneration model in cultures prepared from GLT-1 null mice; assay type: cell-based; settings: not shown
[6] = tested on: G93A SOD1 mice; experiment: In vivo neuroprotection in the G93A SOD1 mouse
Source text: Numerous studies have documented a contributory role for excess glutamate in this mouse model—and role for modulating glutamate receptors or transporters in neuroprotective strategies. Guo H., et al. Hum Mol. Genet. 2003; 12:2519-2532. Modest over expression—by a transgenic approach—can alter disease onset and/or survival.

[7] = tested on: large ventral horn motor neurons in organotypic spinal cord cultures; experiment: In vitro model of chronic motor neurodegeneration (THA) in organotypic spinal cord cultures; assay type: cell-based, rat; settings: THA 100 μM, 4 weeks, drug 0 to 100 μM, FIG. 7B
Description: In vitro model of chronic motor neurodegeneration (FIG. 7B). A model of chronic neurodegeneration was used, based on the blockade of glutamate transport in spinal cord organotypic cultures, with the non specific inhibitor threo-hytdroyxaspartate (THA) or TBOA. Chronic incubation of cultures with THA (or TBOA) leads to chronic increase in extra cellular glutamate and subsequent slow death of motor neurons (over 4 weeks).
To determine if drug induced GLT1 promoter activation, and the subsequent over expression of GLT1 protein could be neuroprotective, we used the organotypic spinal cord paradigm. Organotypic spinal cord cultures were prepared from lumbar spinal cords of 8-day-old rat pups, as described previously. […] No drugs were added for the first 7 days following culture preparation. THA was then added to experimental cultures at a concentration of 100 μM, which produces death of motor neurons within 3 to 4 weeks. […] After 4 weeks, cultures were fixed, and immuostained for neurofilament (SMI-32, Sternberger) to quantify large ventral horn motor neurons (a well established method to follow motor neuron survival in this system).

[8] = tested on: GLT1; experiment: GLT1 expression in spinal cords of chronically treated G93A mice; assay type: in vivo
[9] = 200 mg/kg ip from approximately 12 weeks of age
[10] = started at 70 days of age, two weeks of therapy, vs saline

In the case of CO/N=C(\C(=O)N[C@@H]1C(=O)N2C(C(=O)O)=C(CSc3nc(=O)c(=O)[nH]n3C)CS[C@H]12)c1csc(N)n1 [ceftriaxone sodium], the “maximum average plasma level” value [1] is listed as 82 to 257 µg/mL and the “maximum CSF level in inflamed meninges” value [2] is listed as 1.3 to 44 µg/mL.

For CO/N=C(\C(=O)N[C@@H]1C(=O)N2C(C(=O)O)=C(COC(N)=O)CS[C@H]12)c1ccco1 [cefuroxime], the “neuroprotection, pretreatment” value ([3]; compared with ceftriaxone, 1 hour OGD) was “Comparable neuroprotection”.

For CCCC(=O)Nc1ncnc2c1ncn2[C@@H]1O[C@@H]2COP(=O)(O)O[C@H]2[C@H]1OC(=O)CCC [dbcAMP, dibutyryl cyclic AMP], the EAAT2 expression [4] was “large increase”.

With CN[C@H](CC(C)C)C(=O)N[C@H]1C(=O)N[C@@H](CC(N)=O)C(=O)N[C@H]2C(=O)N[C@H]3C(=O)N[C@H](C(=O)N[C@H](C(=O)O)c4cc(O)cc(O)c4-c4cc3ccc4O)[C@H](O)c3ccc(c(Cl)c3)Oc3cc2cc(c3O[C@@H]2O[C@H](CO)[C@@H](O)[C@H](O)[C@H]2O[C@H]2C[C@](C)(N)[C@H](O)[C@H](C)O2)Oc2ccc(cc2Cl)[C@H]1O [vancomycin] the GLT1 levels [4] was “did not alter”.

With CO/N=C(\C(=O)N[C@@H]1C(=O)N2C(C(=O)O)=C(CSc3nc(=O)c(=O)[nH]n3C)CS[C@H]12)c1csc(N)n1 [ceftriaxone] the “neuroprotection in GLT-1 null cultures” value [5] was “cannot be seen”, the “age by which strength preservation was lost” value [6, 9] was no more than 18 weeks and the “persistence of strength effect” value [6, 9] was 4 weeks. The “time after treatment at which strength effect was observed” value [6, 9] was no more than 7 days, the “loss of muscle strength (grip strength)” value ([6]; 200 mg/kg ip from approximately 12 weeks of age, FIG. 7C) was “significantly delayed” and the “increase of over all survival” value ([6]; 200 mg/kg ip from approximately 12 weeks of age, FIG. 7D) was 7 to 10 days. For the same molecule, the “survival, earlier administration” value ([6]; same dose started at 42 days of age) was “survival was also increased”, the “hypercellular-associated gliosis and inflammation” value [6, 10] was “reduction” and the “motor neuron loss in vivo” value [6, 10] was “significant prevention”. The “percentage of neuronal cell death” value ([3]; 1 μM added 48 hours prior to 1 hour OGD, 50% without drug) was 20%, the “neuroprotection, acute administration” value ([3]; acute administration, 1 hour OGD) was “not protective” and the “increase of GLT1 protein and function” value ([4]; concentration used in the THA neuroprotection study) was “at least 3 fold”. The EC50 ([4]; follow-up dose response analysis, FIG. 2F) was 3.5 µM, the “motor neuron loss / neuroprotection” value [7] was “prevented motor neurons loss in a dose dependent manner” and the “endogenous GLT1 expression in spinal cords” value [8] was “increase endogenous GLT1 expression significantly”.

For penicillin, the “active in increasing EAAT2 in the first screen” value ([4]; first screen, 10-100 μM) was “active”.

For CCC(C)(C)C(=O)C(=O)N1CCC[C@H]1C(=O)OCCCc1cccnc1 [GPI-1046], the EAAT2 expression [4] was “large increase”.

B1: GDNF: positive control for transporter synthesis (protein, UniProt P39905 78-211, looked up)
Glial cell line-derived …: SPDKQMAVLPRRERNRQAAAANPENSRGKGRRGQRGKNRGCVLTAIHLNVTDLGLGYETKEELIFRYCSGSCDAAETTYDKILKNLSRNRRLVSDKVGQACCRPIAFDDDLSFLDDNLVYHILRKHSAKRCGCI
With B1 the EAAT2 expression [4] was “large increase”.
